Source: patent US20250268903A1, “RXFP1 AGONISTS” (BRISTOL-MYERS SQUIBB COMPANY, priority 2021, published 2025)

Biological target: T1, human RXFP1 (Homo sapiens, UniProt Q9HBX9)
T1 construct: expressed in transfected cells
T1 sequence (Q9HBX9 1-757): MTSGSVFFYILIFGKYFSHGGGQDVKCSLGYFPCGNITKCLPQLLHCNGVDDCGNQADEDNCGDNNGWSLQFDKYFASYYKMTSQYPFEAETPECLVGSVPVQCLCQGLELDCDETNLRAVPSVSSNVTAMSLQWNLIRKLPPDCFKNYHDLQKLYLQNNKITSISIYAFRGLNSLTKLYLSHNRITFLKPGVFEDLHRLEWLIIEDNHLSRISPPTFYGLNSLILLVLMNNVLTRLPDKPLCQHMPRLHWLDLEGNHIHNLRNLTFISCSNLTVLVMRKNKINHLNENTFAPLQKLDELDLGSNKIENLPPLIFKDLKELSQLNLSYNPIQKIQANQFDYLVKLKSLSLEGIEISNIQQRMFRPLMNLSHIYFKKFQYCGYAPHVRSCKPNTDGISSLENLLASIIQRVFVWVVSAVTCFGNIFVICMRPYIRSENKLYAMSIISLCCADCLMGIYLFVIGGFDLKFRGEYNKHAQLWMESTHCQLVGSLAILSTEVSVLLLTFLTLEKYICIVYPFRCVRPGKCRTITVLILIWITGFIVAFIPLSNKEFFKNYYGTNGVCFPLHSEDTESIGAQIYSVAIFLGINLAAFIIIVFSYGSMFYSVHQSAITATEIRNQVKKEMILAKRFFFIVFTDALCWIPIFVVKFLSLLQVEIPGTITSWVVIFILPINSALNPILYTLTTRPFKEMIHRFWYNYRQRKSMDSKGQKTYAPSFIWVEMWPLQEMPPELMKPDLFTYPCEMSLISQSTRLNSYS
Experiment: hRXFP1 HEK293 cAMP assay (HTRF)
Type: cell-based
Details: HEK293 cells stably expressing human RXFP1, 30 min at room temperature
In short: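 In a stable human RXFP1 HEK293 line, compounds acted for 30 min at RT in buffer with 0.5 mM IBMX. HTRF then quantified cellular cAMP.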

Row | Molecule | EC50 [nM]
1 | COc1ccc(COC2CCOCC2)cc1C(=O)N[C@H]1[C@@H](C(=O)Nc2ccc(F)c(C(F)(F)F)c2)[C@H]2CC[C@@H]1/C2=C\C1CC1 [Example 288, (1R,2S,3R,4R,7Z)-7-(cyclopropyl-methylidene)-N-[4-fluoro-3-(trifluoromethyl)phenyl]-3-{2-methoxy-5-[(oxan-4-yloxy)methyl]benzamido} bicyclo[2.2.1] heptane-2-carboxamide] | 58.7
2 | (1R,4R,7Z)-7- (cyclopentyl- methylidene)- N-[4-fluoro- 3-(trifluoromethyl) phenyl]-3-[5-(3- hydroxy-3- methylbutyl)-2- methoxybenzamido] bicyclo[2.2.1]heptane- 2-carboxamide [Example 260] | 324
3 | COc1ccc(C#CC(C)(C)O)cc1C(=O)N[C@@H]1C2CCC(/C2=C/C(F)(F)F)[C@@H]1C(=O)Nc1ccc(F)c(C(F)(F)F)c1 (stereo partly drawn) [Example 70, (2S,3R,7Z)-N-[4-fluoro-3-(trifluoromethyl)phe-nyl]-3-[5-(3-hydroxy-3-methylbut-1-yn-1-yl)-2-methoxybenzamido]-7-(2,2,2-trifluoroethylidene)bi-cyclo[2.2.1]heptane-2-carboxamide] | 309
4 | COc1ccc(/C=C(/C)C(=O)N2CCC(O)CC2)cc1C(=O)N[C@H]1[C@@H](C(=O)Nc2ccc(F)c(C(F)(F)F)c2)[C@H]2CC[C@@H]1/C2=C\C(F)(F)F [Example 319] | 1120
5 | COc1ccc(CC(C)CO)cc1C(=O)N[C@@H]1C2CCC(/C2=C/C(F)(F)F)[C@@H]1C(=O)Nc1ccc(F)c(C(F)(F)F)c1 (single isomer, unassigned) [Example 67] | 193
6 | COc1ccc(C(=O)NCC(C)(C)O)cc1C(=O)N[C@H]1[C@@H](C(=O)Nc2ccc(F)c(C(F)(F)F)c2)[C@H]2CC[C@@H]1/C2=C\C1CC1 [Example 240, N3-[(1R,2R,3S,4R,7Z)-7-(cyclopropyl-methylidene)-3-{[4-fluoro-3-(trifluoromethyl)phenyl]carbamoyl}bicyclo[2.2.1]heptan-2-yl]-N1-(2-hydroxy-2-methylpropyl)-4-methoxybenzene-1,3-dicarboxamide] | 53.1
7 | COc1ccc(S(=O)(=O)N2CCO[C@@H](CO)C2)cc1C(=O)NC1C2CCC(/C2=C/C2CC2)[C@@H]1C(=O)Nc1ccc(F)c(C(F)(F)F)c1 (stereo partly drawn) [Example 201, (2S,3R,7Z)-7-(cyclopropylmethyli-dene)-N-[4-fluoro-3-(trifluoromethyl)phe-nyl]-3-(5-{[(2R)-2-(hydroxymethyl)mor-pholin-4-yl]sulfonyl}-2-methoxybenzamido) bicyclo[2.2.1]heptane-2-carboxamide] | 14
8 | (1R,4R,7Z)-N-[4- fluoro-3- (trifluoromethyl) phenyl]-3-[5-(3- hydroxypropyl)-2- methoxybenzamido]- 7-[(oxolan-3- yl)methylidene] bicyclo[2.2.1] heptane- 2-carboxamide [Example 264] | 459
9 | COc1ccc(COc2cccc(C(=O)O)c2)cc1C(=O)N[C@H]1[C@@H](C(=O)Nc2ccc(F)c(C(F)(F)F)c2)[C@H]2CC[C@@H]1/C2=C\C1CC1 [Example 12, 3-((3-(((1R,2R,3S,4R,Z)-7-(cyclopropylmethylene)-3-((4-fluoro-3-(trifluoromethyl)phenyl)carbamoyl)bicyclo[2.2.1]heptan-2-yl)carbamoyl)-4-methoxybenzyl)oxy)benzoic acid] | 10
10 | COc1ccc(C2CCCCC2)cc1C(=O)N[C@@H]1C2CCC(/C2=C/C(F)(F)F)[C@@H]1C(=O)Nc1ccc(F)c(C(F)(F)F)c1 (stereo partly drawn) [Example 39, (2S,3R,7Z)-3-(5-cyclohexyl-2-methoxybenzamido)-N-[4-fluoro-3-(trifluoromethyl)phenyl]-7-(2,2,2-trifluoroethylidene) bicyclo[2.2.1]heptane-2-carboxamide] | 611
11 | COc1ccc(C(=O)N(C)CCS(C)(=O)=O)cc1C(=O)N[C@H]1[C@@H](C(=O)Nc2ccc(F)c(C(F)(F)F)c2)[C@H]2CC[C@@H]1/C2=C\C1CC1 [Example 250, N3-[(1R,2R,3S,4R,7Z)-7-(cyclopropyl-methylidene)-3-{[4-fluoro-3-(trifluoromethyl)phenyl]carbamoyl}bicyclo[2.2.1]heptan-2-yl]-N1-(2-methane-sulfonylethyl)-4-methoxy-N1-methylbenzene-1,3-dicarboxamide] | 34.9

Continued by falling EC50, values first:

Row | EC50 [nM] | Molecule
12 | 940 | COc1ccc(CCCNC(=O)CO)cc1C(=O)N[C@@H]1C2CCC(/C2=C/C(F)(F)F)[C@@H]1C(=O)Nc1ccc(F)c(C(F)(F)F)c1 (stereo partly drawn) [Example 116, (2S,3R,7Z)-N-[4-fluoro-3-(trifluoromethyl)phe-nyl]-3-{5-[3-(2-hydroxyacetamido)pro-pyl]-2-methoxybenzamido}-7-(2,2,2-trifluoroethylidene)bi-cyclo[2.2.1]heptane-2-carboxamide]
13 | 317 | COc1ccc(S(=O)(=O)N2CCC(CCO)CC2)cc1C(=O)N[C@H]1[C@@H](C(=O)Nc2ccc(F)c(C(F)(F)F)c2)[C@H]2CC[C@@H]1/C2=C\C(F)(F)F [Example 219, (1R,2S,3R,4R,7Z)-N-[4-fluoro-3-(trifluoromethyl)phenyl]-3-(5-{[4-(2-hydroxyethyl)piperidin-1-yl]sulfonyl}-2-methoxybenzamido)-7-(2,2,2-trifluoroethylidene) bicyclo[2.2.1]heptane-2-carboxamide]
14 | 229 | COc1ccc(C#CCCCCO)cc1C(=O)N[C@@H]1C2CCC(/C2=C/C(F)(F)F)[C@@H]1C(=O)Nc1ccc(F)c(C(F)(F)F)c1 (stereo partly drawn) [Example 78, (2S,4R,7Z)-N-[4-fluoro-3-(trifluoromethyl)phe-nyl]-3-[5-(6-hydroxyhex-1-yn-1-yl)-2-methoxybenzamido]-7-(2,2,2-trifluoroethylidene)bi-cyclo[2.2.1]heptane-2-carboxamide]
15 | 103 | COc1ccc(CCCCCC#N)cc1C(=O)NC1C2CCC(/C2=C/C(F)(F)F)[C@@H]1C(=O)Nc1ccc(F)c(C(F)(F)F)c1 (some centres unmarked) [Example 181, (7Z)-3-[5-(5-cyanopentyl)-2-methoxybenzamido]-N-[4-fluoro-3-(trifluoromethyl)phe-nyl]-7-(2,2,2-trifluoroethylidene)bi-cyclo[2.2.1]heptane-2-carboxamide]
16 | 31.4 | COc1ccc(/C=C(\C)C(=O)N2CCC(O)CC2)cc1C(=O)N[C@H]1[C@@H](C(=O)Nc2ccc(F)c(C(F)(F)F)c2)[C@H]2CC[C@@H]1/C2=C\C(F)(F)F [Example 312, (1R,2S,3R,4R,7Z)-N-[4-fluoro-3-(trifluoromethyl)phenyl]-3-{5-[(1E)-3-(4-hydroxypiperidin-1-yl)-2-methyl-3-oxoprop-1-en-1-yl]-2-methoxybenzamido}-7-(2,2,2-trifluoroethylidene) bicyclo[2.2.1]heptane-2-carboxamide]
17 | 5.26 | COc1ccc(/C=C/C(=O)N2CCOCC2)cc1C(=O)N[C@H]1[C@@H](C(=O)Nc2ccc(F)c(C(F)(F)F)c2)[C@H]2CC[C@@H]1/C2=C\C1CC1 [Example 306, (1R,2S,3R,4R,7Z)-7-(cyclopropyl-methylidene)-N-[4-fluoro-3-(trifluoromethyl)phenyl]-3-{2-methoxy-5-[(1E)-3-(morpholin-4-yl)-3-oxoprop-1-en-1-yl]benzamido} bicyclo[2.2.1] heptane-2-carboxamide]
